Results published in patent US10654832B2, “3-(benzoimidazol-2-YL)-indazole inhibitors of the Wnt signaling pathway and therapeutic uses thereof” (Samumed, LLC, priority 2013, dated 2020).

Each compound was assayed on Wnt activity (wnt-responsive SP5 promoter luciferase reporter in SW480 cells) (assay: Wnt activity reporter assay (SP5 promoter-firefly luciferase in SW480 cells)). Conditions: Homo sapiens; SW480 colon cancer cells with SP5 promoter luciferase reporter; 24 h after compound addition; half-log dilutions, three micromolar top concentration; normalized to DMSO; read-out: Wnt inhibition.
Assay type: cell-based
From the text: The above synthesized compounds were screened using the assay procedure for Wnt activity described below.
Reporter cell lines were generated by stably transducing cells of cancer cell lines (e.g., colon cancer) with a lentiviral construct that include a wnt-responsive promoter driving expression of the firefly luciferase gene.
Lentiviral constructs were made in which the SP5 promoter, a promoter having eight TCF/LEF binding sites derived from the SP5 promoter, was linked upstream of the firefly luciferase gene. The lentiviral constructs included a hygromycin resistance gene as a selectable marker. The SP5 promoter construct was used to transduce SW480 cells, a colon cancer cell line having a mutated APC gene that generates a truncated APC protein, leading to de-regulated accumulation of β-catenin.
Cultured SW480 cells bearing a reporter construct were distributed at approximately 10,000 cells per well into 384 well multiwell plates. Compounds were then added to the wells in half-log dilutions using a three micromolar top concentration. A series of control wells for each cell type received only buffer and compound solvent. Twenty-four hours after the addition of compound, reporter activity for luciferases was assayed, for example, by addition of the BrightGlo luminescence reagent (Promega) and the Victor3 plate reader (Perkin Elmer). Readings were normalized to DMSO only treated cells, and normalized activities were then used for the IC50 calculations.
For `CN1CCN(c2cccc3[nH]c(-c4n[nH]c5ccc(-c6cccnc6)cc45)nc23)CC1` [Compound 196, 3-(4-(4-Methylpiperazin-1-yl)-1H-benzo[d]imidazol-2-yl)-5-(pyridin-3-yl)-1H-indazole], the IC50 was 28 nM.
`CN(C)c1cncc(-c2ccc3[nH]nc(-c4nc5c(-c6cccnc6)cccc5[nH]4)c3c2)c1` [Compound 79, N,N-Dimethyl-5-(3-(4-(pyridin-3-yl)-1H-benzo[d]imidazol-2-yl)-1H-indazol-5-yl)pyridin-3-amine] was tested, and the IC50 was 45 nM.
`CCNCc1cncc(-c2ccc3[nH]nc(-c4nc5c(-c6ccccc6F)cccc5[nH]4)c3c2)c1` [Compound 54, N-((5-(3-(4-(2-Fluorophenyl)-1H-benzo[d]imidazol-2-yl)-1H-indazol-5-yl)pyridin-3-yl)methyl)ethanamine] was tested, and the IC50 was 46 nM.
`c1ccc(CNCc2cncc(-c3ccc4[nH]nc(-c5nc6c(-c7cccnc7)cccc6[nH]5)c4c3)c2)cc1` [Compound 95, N-Benzyl-1-(5-(3-(4-(pyridin-3-yl)-1H-benzo[d]imidazol-2-yl)-1H-indazol-5-yl)pyridin-3-yl)methanamine] was tested, and the IC50 was 163 nM.
For `O=C(Nc1cncc(-c2ccc3[nH]nc(-c4nc5c(-c6cccc(F)c6)cccc5[nH]4)c3c2)c1)C1CCCCC1` [Compound 22, N-(5-(3-(4-(3-Fluorophenyl)-1H-benzo[d]imidazol-2-yl)-1H-indazol-5-yl)pyridin-3-yl)cyclohexanecarboxamide], the IC50 was 180 nM.
In the case of `CC(C)Nc1cncc(-c2ccc3[nH]nc(-c4nc5c(N6CCCCC6)cccc5[nH]4)c3c2)c1` [Compound 156, N-Isopropyl-5-(3-(4-(piperidin-1-yl)-1H-benzo[d]imidazol-2-yl)-1H-indazol-5-yl)pyridin-3-amine], the IC50 is reported as 66 nM.
Compound `CC(C)CC(=O)Nc1cncc(-c2ccc3[nH]nc(-c4nc5c(-c6ccccn6)cccc5[nH]4)c3c2)c1` [Compound 122, 3-Methyl-N-(5-(3-(4-(pyridin-2-yl)-1H-benzo[d]imidazol-2-yl)-1H-indazol-5-yl)pyridin-3-yl)butanamide] has an IC50 of 11 nM.
Work on `CN1CCN(c2cccc3[nH]c(-c4n[nH]c5ccc(-c6cncc(NC(=O)C7CCCC7)c6)cc45)nc23)CC1` [Compound 213, N-(5-(3-(4-(4-Methylpiperazin-1-yl)-1H-benzo[d]imidazol-2-yl)-1H-indazol-5-yl)pyridin-3-yl)cyclopentanecarboxamide] yielded an IC50 of 195 nM.
`O=C(Nc1cncc(-c2ccc3[nH]nc(-c4nc5ccccc5[nH]4)c3c2)c1)c1ccccc1` [Compound 227, N-(5-(3-(1H-Benzo[d]imidazol-2-yl)-1H-indazol-5-yl)pyridin-3-yl) benzamide] gave an IC50 of 99 nM.
Work on `O=C(Cc1ccccc1)Nc1cncc(-c2ccc3[nH]nc(-c4nc5c(-c6ccncc6)cccc5[nH]4)c3c2)c1` [Compound 106, 2-Phenyl-N-(5-(3-(4-(pyridin-4-yl)-1H-benzo[d]imidazol-2-yl)-1H-indazol-5-yl)pyridin-3-yl)acetamide] yielded an IC50 of 1930 nM.
Work on `Fc1ccccc1-c1cccc2[nH]c(-c3n[nH]c4ccc(-c5cncc(CN6CCCCC6)c5)cc34)nc12` [Compound 63, 3-(4-(2-Fluorophenyl)-1H-benzo[d]imidazol-2-yl)-5-(5-(piperidin-1-ylmethyl)pyridin-3-yl)-1H-indazole] yielded an IC50 of 10 nM.
With `c1ccc(CNCc2cncc(-c3ccc4[nH]nc(-c5nc6ccccc6[nH]5)c4c3)c2)cc1` [Compound 239, 1-(5-(3-(1H-Benzo[d]imidazol-2-yl)-1H-indazol-5-yl)pyridin-3-yl)-N-benzylmethanamine] the IC50 was 372 nM.
`CCCCC(=O)Nc1cncc(-c2ccc3[nH]nc(-c4nc5c(-c6ccccn6)cccc5[nH]4)c3c2)c1` [Compound 138, N-(5-(3-(4-(Pyridin-2-yl)-1H-benzo[d]imidazol-2-yl)-1H-indazol-5-yl)pyridin-3-yl)pentanamide] showed an IC50 of 18 nM.
In the case of `CCCCC(=O)Nc1cncc(-c2ccc3[nH]nc(-c4nc5c(-c6ccccc6F)cccc5[nH]4)c3c2)c1` [Compound 66, N-(5-(3-(4-(2-Fluorophenyl)-1H-benzo[d]imidazol-2-yl)-1H-indazol-5-yl)pyridin-3-yl)pentanamide], the IC50 is reported as ≥ 4000 nM.
`CN1CCN(c2cccc3[nH]c(-c4n[nH]c5ccc(-c6cncc(NC(=O)C(C)(C)C)c6)cc45)nc23)CC1` [Compound 200, N-(5-(3-(4-(4-Methylpiperazin-1-yl)-1H-benzo[d]imidazol-2-yl)-1H-indazol-5-yl)pyridin-3-yl)pivalamide] was tested, and the IC50 was 76 nM.
In the case of `CC(C)C(=O)Nc1cncc(-c2ccc3[nH]nc(-c4nc5c(-c6ccccn6)cccc5[nH]4)c3c2)c1` [Compound 129, N-(5-(3-(4-(Pyridin-2-yl)-1H-benzo[d]imidazol-2-yl)-1H-indazol-5-yl)pyridin-3-yl)isobutyramide], the IC50 is reported as 21 nM.
`O=C(Nc1cncc(-c2ccc3[nH]nc(-c4nc5c(-c6ccncc6)cccc5[nH]4)c3c2)c1)C1CCCCC1` [Compound 118, N-(5-(3-(4-(Pyridin-4-yl)-1H-benzo[d]imidazol-2-yl)-1H-indazol-5-yl)pyridin-3-yl)cyclohexanecarboxamide] was tested, and the IC50 was 1460 nM.
For `CN(C)c1cncc(-c2ccc3[nH]nc(-c4nc5c(-c6ccccn6)cccc5[nH]4)c3c2)c1` [Compound 127, N,N-Dimethyl-5-(3-(4-(pyridin-2-yl)-1H-benzo[d]imidazol-2-yl)-1H-indazol-5-yl)pyridin-3-amine], the IC50 was 32 nM.
`CC(C)C(=O)Nc1cncc(-c2ccc3[nH]nc(-c4nc5c(-c6cccc(F)c6)cccc5[nH]4)c3c2)c1` [Compound 9, N-(5-(3-(4-(3-Fluorophenyl)-1H-benzo[d]imidazol-2-yl)-1H-indazol-5-yl)pyridin-3-yl)isobutyramide] gave an IC50 of 250 nM.
`CCCC(=O)Nc1cncc(-c2ccc3[nH]nc(-c4nc5c(-c6ccoc6)cccc5[nH]4)c3c2)c1` [Compound 281, N-(5-(3-(4-(Furan-3-yl)-1H-benzo[d]imidazol-2-yl)-1H-indazol-5-yl)pyridin-3-yl)butyramide] gave an IC50 of 25 nM.
`Cc1ccncc1-c1ccc2[nH]nc(-c3nc4c(N5CCN(C)CC5)cccc4[nH]3)c2c1` [Compound 197, 3-(4-(4-Methylpiperazin-1-yl)-1H-benzo[d]imidazol-2-yl)-5-(4-methylpyridin-3-yl)-1H-indazole] was tested, and the IC50 was 249 nM.
`CC(C)Nc1cncc(-c2ccc3[nH]nc(-c4nc5c(-c6ccoc6)cccc5[nH]4)c3c2)c1` [Compound 276, 5-(3-(4-(Furan-3-yl)-1H-benzo[d]imidazol-2-yl)-1H-indazol-5-yl)-N-isopropylpyridin-3-amine] showed an IC50 of 16 nM.
For `CC(C)(C)C(=O)Nc1cncc(-c2ccc3[nH]nc(-c4nc5c(-c6ccncc6)cccc5[nH]4)c3c2)c1` [Compound 104, N-(5-(3-(4-(Pyridin-4-yl)-1H-benzo[d]imidazol-2-yl)-1H-indazol-5-yl)pyridin-3-yl)pivalamide], the IC50 was 65 nM.
For `O=C(Nc1cncc(-c2ccc3[nH]nc(-c4nc5c(-c6cccc(F)c6)cccc5[nH]4)c3c2)c1)C1CCCC1` [Compound 21, N-(5-(3-(4-(3-Fluorophenyl)-1H-benzo[d]imidazol-2-yl)-1H-indazol-5-yl)pyridin-3-yl)cyclopentanecarboxamide], the IC50 was 50 nM.
Compound `O=C(Nc1cncc(-c2ccc3[nH]nc(-c4nc5c(-c6ccc(F)cc6)cccc5[nH]4)c3c2)c1)C1CCCC1` [Compound 45, N-(5-(3-(4-(4-Fluorophenyl)-1H-benzo[d]imidazol-2-yl)-1H-indazol-5-yl)pyridin-3-yl)cyclopentanecarboxamide] has an IC50 of 110 nM.
Work on `CC(C)(C)C(=O)Nc1cncc(-c2ccc3[nH]nc(-c4nc5c(-c6ccc(F)cc6)cccc5[nH]4)c3c2)c1` [Compound 32, N-(5-(3-(4-(4-Fluorophenyl)-1H-benzo[d]imidazol-2-yl)-1H-indazol-5-yl)pyridin-3-yl)pivalamide] yielded an IC50 of 35 nM.
Work on `CCCCC(=O)Nc1cncc(-c2ccc3[nH]nc(-c4nc5c(-c6ccc(F)cc6)cccc5[nH]4)c3c2)c1` [Compound 42, N-(5-(3-(4-(4-Fluorophenyl)-1H-benzo[d]imidazol-2-yl)-1H-indazol-5-yl)pyridin-3-yl)pentanamide] yielded an IC50 of 33 nM.
Compound `CCCCC(=O)Nc1cncc(-c2ccc3[nH]nc(-c4nc5ccccc5[nH]4)c3c2)c1` [Compound 234, N-(5-(3-(1H-Benzo[d]imidazol-2-yl)-1H-indazol-5-yl)pyridin-3-yl) pentanamide] has an IC50 of 123 nM.
Work on `O=C(Nc1cncc(-c2ccc3[nH]nc(-c4nc5ccccc5[nH]4)c3c2)c1)C1CCCCC1` [Compound 238, N-(5-(3-(1H-Benzo[d]imidazol-2-yl)-1H-indazol-5-yl)pyridin-3-yl) cyclohexanecarboxamide] yielded an IC50 of 147 nM.
`CCCC(=O)Nc1cncc(-c2ccc3[nH]nc(-c4nc5c(-c6cccnc6)cccc5[nH]4)c3c2)c1` [Compound 89, N-(5-(3-(4-(Pyridin-3-yl)-1H-benzo[d]imidazol-2-yl)-1H-indazol-5-yl)pyridin-3-yl)butyramide] was tested, and the IC50 was 4 nM.
Compound `CC(C)C(=O)Nc1cncc(-c2ccc3[nH]nc(-c4nc5ccccc5[nH]4)c3c2)c1` [Compound 225, N-(5-(3-(1H-Benzo[d]imidazol-2-yl)-1H-indazol-5-yl)pyridin-3-yl) isobutyramide] has an IC50 of 28 nM.
Compound `CC(C)CC(=O)Nc1cncc(-c2ccc3[nH]nc(-c4nc5c(N6CCCCC6)cccc5[nH]4)c3c2)c1` [Compound 146, 3-Methyl-N-(5-(3-(4-(piperidin-1-yl)-1H-benzo[d]imidazol-2-yl)-1H-indazol-5-yl)pyridin-3-yl)butanamide] has an IC50 of 58 nM.
